One may read the pKi as the Ki on a negative log10 scale, so that one unit is a factor of ten.

pKi: −log10 of the molar value. Residues, ends and D or L forms follow the SMILES beside them.

This assay deals with T1, Renin (Homo sapiens, UniProt P00797).
T1 sequence (P00797 whole entry): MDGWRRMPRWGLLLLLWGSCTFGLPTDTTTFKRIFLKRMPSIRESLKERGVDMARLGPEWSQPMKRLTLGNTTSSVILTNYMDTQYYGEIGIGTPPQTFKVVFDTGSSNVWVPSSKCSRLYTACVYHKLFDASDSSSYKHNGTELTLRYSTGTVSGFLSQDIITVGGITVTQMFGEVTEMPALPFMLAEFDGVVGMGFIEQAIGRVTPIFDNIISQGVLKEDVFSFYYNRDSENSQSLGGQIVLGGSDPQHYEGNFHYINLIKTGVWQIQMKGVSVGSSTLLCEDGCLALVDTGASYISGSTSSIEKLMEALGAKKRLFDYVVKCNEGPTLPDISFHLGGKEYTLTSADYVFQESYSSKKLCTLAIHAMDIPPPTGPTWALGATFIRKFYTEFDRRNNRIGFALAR
Briefly: Inhibition of human amniotic renin was tested and determined by Dixon plots.
As for `COC(=O)[C@H](Cc1ccccc1)NC(=O)[C@@H](NC(=O)[C@H](CC(C)C)NC(=O)[C@@H](O)CC(C)C)C(C)C`, the pKi is 3.64.
For `COC(=O)[C@H](Cc1ccccc1)NC(=O)[C@@H](NC(=O)[C@H](CC(C)C)NC(=O)[C@@H](O)C(C)C)C(C)C`, the pKi was 3.52.
Turning to `COC(=O)[C@H](Cc1ccccc1)NC(=O)[C@@H](NC(=O)[C@H](CC(C)C)NC(=O)[C@H](O)c1ccccc1)C(C)C`, the pKi was 3.01.
Regarding `COC(=O)[C@H](Cc1ccccc1)NC(=O)[C@@H](NC(=O)[C@H](CC(C)C)NC(=O)[C@@H](O)c1ccccc1)C(C)C`, the negative-log Ki (pKi) is 3.28.
To `COC(=O)[C@H](Cc1ccccc1)NC(=O)[C@@H](NC(=O)[C@H](CC(C)C)NC(=O)[C@H](O)CC(C)C)C(C)C` belongs 3.22.
Turning to `COC(=O)[C@H](Cc1ccccc1)NC(=O)[C@@H](NC(=O)[C@H](CC(C)C)NC(=O)[C@H](O)C(C)C)C(C)C`, the pKi was 2.75.
Compound `COC(=O)[C@H](Cc1ccccc1)NC(=O)[C@@H](NC(=O)[C@H](CC(C)C)NC(=O)[C@@H](N)CC(C)C)C(C)C` (HELM PEPTIDE1{L.L.V.F.[CO[*:1]]}$$$$V2.0) gave a negative logarithm of the Ki (pKi) of 2.94.
In turn, `COC(=O)[C@H](Cc1ccccc1)NC(=O)[C@@H](NC(=O)[C@H](CC(C)C)NC(=O)[C@@H](O)Cc1ccccc1)C(C)C` (HELM PEPTIDE1{[O=C([C@@H](O)Cc1ccccc1)[*:2]].L.V.F.[CO[*:1]]}$$$$V2.0) showed a pKi of 3.17.
